According to patent publication US6512007B1, “Use of galiella lactone” (Bayer Aktiengesellschaft, priority 2000, dated 2003):

Experiments:
[1] = system: Stat3; assay: IL-6-induced phosphorylation of Stat3 (tyrosine-705, serine-727) in HepG2 cells, immunoprecipitation/Western blot; assay type: cell-based, human; settings: HepG2, IL-6 50 ng/ml; all concentrations tested, up to 16 μg/ml, equivalent to 165 μM
Excerpt: A crucial step in IL-6-dependent intracellular signal transduction is the phosphorylation of tyrosine-705 in Stat3 and tyrosine-701 in Stat1. […] However, inhibitors which inhibit the Stat3 and Stat1 phosphorylation also have crucial effects on other signal cascades, and therefore pharmaceutically usable inhibitors of IL-6-dependent gene expression should, in the concentration range in which they display their pharmacological effect, affect the Stat3 or Stat1 phosphorylation only slightly or not at all.
Seed out HepG2 cells in Petri dishes (diameter: 10 cm) (OptiMEM medium with 10% fetal calf serum and penicillin/streptomycin (100 iu) cell density: 5×10^5 cell/ml). Incubate in a moist atmosphere with 5% CO2 at 37° C. for 24 h. Replace medium by fresh OptiMEM medium with 0.5% fetal calf serum and penicillin/streptomycin (100 iu) and incubate for a further 48 h. Replace medium by fresh OptiMEM medium with 0.5% fetal calf serum and penicillin/streptomycin (100 iu), add test substances in various concentrations, and incubate for 60 min. 5 μl of the substances dissolved in ethanol, or only ethanol (controls), were added per mixture (10 ml). Induce cells by adding IL-6 (final concentrations 50 ng/ml).
After 20 min. remove medium and wash cell lawn twice wtih 1.5 ml of ice-cold PBS (137 mM NaCl, 2.7 mM KCl, 8.1 mM Na2HPO4×2H2O, 1.5 mM KH2PO4) each time. […]

[2] = Solubility in solvents; assay type: physicochemical
Excerpt: Galiella lactone has the physical and chemical properties described hereinafter. […] It was possible with the aid of the mass spectra (Table 1) to establish firstly the molecular weight of 194 Da and then the molecular formula of C11H14O3.

solubility in nonpolar solvents ([2]; cyclohexane, n-pentane, n-hexane): scarcely soluble
solubility in polar solvents ([2]; methanol, pyridine, ethyl acetate, acetonitrile, TBME, THF and water): readily soluble
Compound: C[C@H]1C=C2C(=O)O[C@H]3CC[C@@H](C1)[C@@]23O [galiella lactone]
effect on the phosphorylation of Stat3 [1]: no effect
